# According to paper PMC10323144, “Garbage in, garbage out: how reliable training data improved a virtual screening approach against SARS-CoV-2 MPro” (Frontiers in Pharmacology, 2023):
# Target: SARS-CoV-2 MPro (Severe acute respiratory syndrome coronavirus 2, UniProt P0DTD1)
# Assay: MPro activity assay (de-quenching of Edans fluorescence on cleavage of a Dabcyl/Edans peptide)
# Assay type: biochemical
# Settings: in-house acquired data, internal screening under standardized conditions (128 compounds)
row,SMILES,Class (MPro activity class)
1,O=C(C1=C(O)C(=O)N(c2nc3ccc(Cl)cc3s2)C1c1ccccc1)c1ccc2c(c1)OCCO2 (centres unmarked) [ADRMC159],"0 (compounds with IC50 > 20 μM, percentage inhibition <80% at 20 µM or 50 μM, or percentage enzyme inhibition <50% at 10 µM were labelled as INACTIVE)"
2,COC(=O)CN1C(=O)C(C2C(=O)OCC2c2ccccc2)C1C=Cc1ccccc1 (centres unmarked) [CMD111],"0 (compounds with IC50 > 20 μM, percentage inhibition <80% at 20 µM or 50 μM, or percentage enzyme inhibition <50% at 10 µM were labelled as INACTIVE)"
3,O=c1[nH]sc2ccccc12 [COV19001],1 (Compounds with IC50 < 10 µM or with a percentage of enzyme inhibition >50% at 10 µM were labelled as ACTIVE)
4,Cc1cccc2c(=O)[nH]sc12 [COV19002],"0 (compounds with IC50 > 20 μM, percentage inhibition <80% at 20 µM or 50 μM, or percentage enzyme inhibition <50% at 10 µM were labelled as INACTIVE)"
5,O=c1c2ccccc2sn1Cc1ccc(F)cc1 [COV19003],1 (Compounds with IC50 < 10 µM or with a percentage of enzyme inhibition >50% at 10 µM were labelled as ACTIVE)
6,O=c1c2ccccc2sn1Cc1ccc(C(F)(F)F)cc1 [COV19004],1 (Compounds with IC50 < 10 µM or with a percentage of enzyme inhibition >50% at 10 µM were labelled as ACTIVE)
7,Cc1cc(Cl)cc2sn(Cc3ccccc3)c(=O)c12 [COV19006],1 (Compounds with IC50 < 10 µM or with a percentage of enzyme inhibition >50% at 10 µM were labelled as ACTIVE)
8,Cc1cccc2c(=O)n(Cc3ccccc3)sc12 [COV19007],"0 (compounds with IC50 > 20 μM, percentage inhibition <80% at 20 µM or 50 μM, or percentage enzyme inhibition <50% at 10 µM were labelled as INACTIVE)"
9,COc1ccc(Cn2sc3ccccc3c2=O)cc1 [COV19009],1 (Compounds with IC50 < 10 µM or with a percentage of enzyme inhibition >50% at 10 µM were labelled as ACTIVE)
10,O=c1c2ccccc2sn1-c1ccccc1 [COV19010],1 (Compounds with IC50 < 10 µM or with a percentage of enzyme inhibition >50% at 10 µM were labelled as ACTIVE)
11,Cc1cccc(Cl)c1-n1sc2ccccc2c1=O [COV19011],1 (Compounds with IC50 < 10 µM or with a percentage of enzyme inhibition >50% at 10 µM were labelled as ACTIVE)
12,O=c1c2ccccc2sn1-c1ccc(C(F)(F)F)cc1 [COV19012],1 (Compounds with IC50 < 10 µM or with a percentage of enzyme inhibition >50% at 10 µM were labelled as ACTIVE)
13,O=c1c2ccccc2sn1-c1ccc2ccccc2c1 [COV19013],1 (Compounds with IC50 < 10 µM or with a percentage of enzyme inhibition >50% at 10 µM were labelled as ACTIVE)
14,O=c1c2ccccc2sn1-c1ccc([N+](=O)[O-])cc1 [COV19014],1 (Compounds with IC50 < 10 µM or with a percentage of enzyme inhibition >50% at 10 µM were labelled as ACTIVE)
15,Cc1ccc(-n2sc3ccccc3c2=O)cc1 [COV19015],1 (Compounds with IC50 < 10 µM or with a percentage of enzyme inhibition >50% at 10 µM were labelled as ACTIVE)
16,O=c1c2ccccc2sn1-c1ccc(Cl)cc1 [COV19016],1 (Compounds with IC50 < 10 µM or with a percentage of enzyme inhibition >50% at 10 µM were labelled as ACTIVE)
17,Cc1cccc2c(=O)n(-c3ccccc3)sc12 [COV19017],"0 (compounds with IC50 > 20 μM, percentage inhibition <80% at 20 µM or 50 μM, or percentage enzyme inhibition <50% at 10 µM were labelled as INACTIVE)"
18,Cc1ccc(-n2sc3cc(Cl)cc(C)c3c2=O)cc1 [COV19018],1 (Compounds with IC50 < 10 µM or with a percentage of enzyme inhibition >50% at 10 µM were labelled as ACTIVE)
19,CCOC(=O)c1ncc(-n2sc3ccccc3c2=O)s1 [COV19019],1 (Compounds with IC50 < 10 µM or with a percentage of enzyme inhibition >50% at 10 µM were labelled as ACTIVE)
20,O=C1NCCCCC1n1sc2ccccc2c1=O (centres unmarked) [COV19020],1 (Compounds with IC50 < 10 µM or with a percentage of enzyme inhibition >50% at 10 µM were labelled as ACTIVE)
